Source: patent publication EP4785942A1, “NOVEL COMBINATION THERAPY FOR BLOOD CANCER” (Carna Biosciences, Inc., priority 2023, dated 2025)
pIC50: −log10 of the molar value. Where two headings read alike, the source gives them in different places.

How the values were obtained:
Assay type in all cases: cell-based
MV-4-11 = assay: Cell growth suppression test in monotherapy (resazurin); conditions: Homo sapiens, read-out: Cell growth suppression activity IC50
Experimental: (§1) A human acute monocytic leukemia cell line (THP-1), a human acute myeloid leukemia cell line (MV-4-11), a human acute monocytic leukemia cell line (MOLM-14), and a human erythroleukemia cell line (TF-1) were cultured in a 5% CO2 incubator using a RPMI1640 medium (Roswell Park Memorial Institute medium, nacalai tesque) comprising 10% Fetal bovine serum (Thermo Scientific, SIGMA-ALDRICH, or Cytiva) and 1% penicillin/streptomycin (nacalai tesque).
(§2) THP-1 cells and MV-4-11 cells at 2×10^4 cells/well, and MOLM-14 cells and TF-1 cells at 5×10^3 cells/well were each seeded to a 96 well plate (cell plate), and thereto was added a test compound diluted with the medium so that the final concentration thereof would be 3 nM to 30 µM (final DMSO concentration: 0.3%). After the resulting mixture was cultured for 72 hours, a resazurin reagent (nacalai tesque) was added thereto. After 3 hours, a fluorescence at an excitation wavelength of 560 nm and a fluorescence wavelength of 590 nm was measured, and each IC50 value of the inhibitory activity was calculated by a criterion in which a well without the compound and without the cells was set to be 100%, and a well without the compound and with cells was set to be 0%.

TF-1 = assay: as above; conditions: Homo sapiens, read-out: Cell growth suppression activity IC50
Experimental: as §1, §2

MOLM-14 = assay: as above; conditions: Homo sapiens, read-out: Cell growth suppression activity IC50
Experimental: as §1, §2

THP-1 = assay: as above; conditions: Homo sapiens, read-out: Cell growth suppression activity IC50
Experimental: as §1, §2

THP-1 cells = assay: Dose-response test of DNA methyltransferase inhibitor in the presence of compound (I); conditions: Homo sapiens, read-out: THP-1 cell growth suppression activity azacitidine IC50 (converted)
Experimental: as §2
Changes in the IC50 value of a DNA methyltransferase inhibitor (azacitidine) in the presence of the compound (I) were investigated.

[1] = MV4-11, MV-4-11 cells, monotherapy, cultured for 72 hours
[2] = TF-1 cells, monotherapy, cultured for 72 hours
[3] = MOLM-14 cells, monotherapy, cultured for 72 hours
[4] = THP-1 cells, monotherapy, cultured for 72 hours

pIC50 (MV-4-11; [1])	pIC50 (MOLM-14; [3])	pIC50 (THP-1; [4])	IC50 (THP-1 cells; THP-1, Concentration of compound (I) 0 µM (DMSO-added control)) [nM]	IC50 (THP-1 cells; THP-1, Concentration of compound (I) 3 µM) [nM]	Structure (SMILES)	pIC50 (TF-1; [2])	pIC50 (MV-4-11; MV4-11, 72 h)	pIC50 (TF-1; TF-1, 72 h)	pIC50 (MOLM-14; MOLM-14, 72 h)	pIC50 (THP-1; THP-1, 72 h)
5.92	5.55	5.13	6930	2030	Nc1ncn([C@@H]2O[C@H](CO)[C@@H](O)[C@H]2O)c(=O)n1 [Azacitidine, azacitidine]	5.72	–	–	–	–
6.72	6.80	5.39	–	–	CCOC(=O)C1=C(NN2CCN(CC(F)(F)F)CC2)O/C(=C\c2c[nH]c3ncccc23)C1=O [Compound (I), ethyl 5-[(1H-pyrrolo[2,3-b]pyridin-3-yl)methylene]-4-oxo-2-{[4-(2,2,2-trifluoroethyl)piperazinyl]amino}-4,5-dihydrofuran-3-carboxylate]	6.47	–	–	–	–
–	–	–	–	–	Nc1ncn([C@H]2C[C@H](O)[C@@H](CO)O2)c(=O)n1 [Decitabine, decitabine]	–	6.27	6.92	6.80	< 4.52
